From patent US8895602B1, “6-pyrazolylamido-3-substituted azabicyclo[3.1.0]hexane compounds as calcium channel inhibitors” (Korea Institute of Science and Technology, priority 2013, dated 2014)

Assays:
[1] = target: T1, α1G T-type calcium channel (Homo sapiens, UniProt O43497); test: Antagonistic activity against T-type calcium channel (FDSS6000 / whole-cell patch clamp in HEK293 cells), α1G; type: cell-based
T1 construct: host or cells: HEK293
Procedure: (§8) Test of Antagonistic Activity Against T-Type Calcium Channel
Then, as secondary screening, the effective inhibitory concentration IC50 for human HEK293 cells was obtained by measuring the potential of Ca^2+.
1) Measurement of T-Type Calcium Channel Activity Using FDSS6000
Subsequently, 10 minutes prior to the FDSS6000 measurement, the cells were washed with HEPES buffer containing 10 mM CaCl2 once and the final volume was adjusted to 81 μL. Separately from the 96-well plate with the cells, two 96-well drug plates were prepared, one containing KCl (final concentration 75 mM) for activating the T-type calcium channel and the other containing the blocking agent (test compound). […] For the FDSS6000 measurement, after baseline recording for 20 seconds, the cells were pretreated with the test compound for 75 seconds and the change in intracellular calcium concentration induced by KCl was measured. The % inhibition by the test compound was calculated as integrated values of the 340/380 ratio relative to the untreated control group. […]
For calcium imaging, the cells were selectively exposed to light of excitation wavelengths (340 nm and 380 nm) with four xenon lamps installed in the FDSS6000 device using a computer-controlled filter wheel. The emitted fluorescence light that passed through a 515 nm long-pass filter was passed through a freezing CCD camera mounted in the device. […]

[2] = target: α1H T-type calcium channel (Homo sapiens, UniProt O95180); test: Antagonistic activity against T-type calcium channel, α1H; type: cell-based
Chain of α1H T-type calcium channel (O95180 whole entry): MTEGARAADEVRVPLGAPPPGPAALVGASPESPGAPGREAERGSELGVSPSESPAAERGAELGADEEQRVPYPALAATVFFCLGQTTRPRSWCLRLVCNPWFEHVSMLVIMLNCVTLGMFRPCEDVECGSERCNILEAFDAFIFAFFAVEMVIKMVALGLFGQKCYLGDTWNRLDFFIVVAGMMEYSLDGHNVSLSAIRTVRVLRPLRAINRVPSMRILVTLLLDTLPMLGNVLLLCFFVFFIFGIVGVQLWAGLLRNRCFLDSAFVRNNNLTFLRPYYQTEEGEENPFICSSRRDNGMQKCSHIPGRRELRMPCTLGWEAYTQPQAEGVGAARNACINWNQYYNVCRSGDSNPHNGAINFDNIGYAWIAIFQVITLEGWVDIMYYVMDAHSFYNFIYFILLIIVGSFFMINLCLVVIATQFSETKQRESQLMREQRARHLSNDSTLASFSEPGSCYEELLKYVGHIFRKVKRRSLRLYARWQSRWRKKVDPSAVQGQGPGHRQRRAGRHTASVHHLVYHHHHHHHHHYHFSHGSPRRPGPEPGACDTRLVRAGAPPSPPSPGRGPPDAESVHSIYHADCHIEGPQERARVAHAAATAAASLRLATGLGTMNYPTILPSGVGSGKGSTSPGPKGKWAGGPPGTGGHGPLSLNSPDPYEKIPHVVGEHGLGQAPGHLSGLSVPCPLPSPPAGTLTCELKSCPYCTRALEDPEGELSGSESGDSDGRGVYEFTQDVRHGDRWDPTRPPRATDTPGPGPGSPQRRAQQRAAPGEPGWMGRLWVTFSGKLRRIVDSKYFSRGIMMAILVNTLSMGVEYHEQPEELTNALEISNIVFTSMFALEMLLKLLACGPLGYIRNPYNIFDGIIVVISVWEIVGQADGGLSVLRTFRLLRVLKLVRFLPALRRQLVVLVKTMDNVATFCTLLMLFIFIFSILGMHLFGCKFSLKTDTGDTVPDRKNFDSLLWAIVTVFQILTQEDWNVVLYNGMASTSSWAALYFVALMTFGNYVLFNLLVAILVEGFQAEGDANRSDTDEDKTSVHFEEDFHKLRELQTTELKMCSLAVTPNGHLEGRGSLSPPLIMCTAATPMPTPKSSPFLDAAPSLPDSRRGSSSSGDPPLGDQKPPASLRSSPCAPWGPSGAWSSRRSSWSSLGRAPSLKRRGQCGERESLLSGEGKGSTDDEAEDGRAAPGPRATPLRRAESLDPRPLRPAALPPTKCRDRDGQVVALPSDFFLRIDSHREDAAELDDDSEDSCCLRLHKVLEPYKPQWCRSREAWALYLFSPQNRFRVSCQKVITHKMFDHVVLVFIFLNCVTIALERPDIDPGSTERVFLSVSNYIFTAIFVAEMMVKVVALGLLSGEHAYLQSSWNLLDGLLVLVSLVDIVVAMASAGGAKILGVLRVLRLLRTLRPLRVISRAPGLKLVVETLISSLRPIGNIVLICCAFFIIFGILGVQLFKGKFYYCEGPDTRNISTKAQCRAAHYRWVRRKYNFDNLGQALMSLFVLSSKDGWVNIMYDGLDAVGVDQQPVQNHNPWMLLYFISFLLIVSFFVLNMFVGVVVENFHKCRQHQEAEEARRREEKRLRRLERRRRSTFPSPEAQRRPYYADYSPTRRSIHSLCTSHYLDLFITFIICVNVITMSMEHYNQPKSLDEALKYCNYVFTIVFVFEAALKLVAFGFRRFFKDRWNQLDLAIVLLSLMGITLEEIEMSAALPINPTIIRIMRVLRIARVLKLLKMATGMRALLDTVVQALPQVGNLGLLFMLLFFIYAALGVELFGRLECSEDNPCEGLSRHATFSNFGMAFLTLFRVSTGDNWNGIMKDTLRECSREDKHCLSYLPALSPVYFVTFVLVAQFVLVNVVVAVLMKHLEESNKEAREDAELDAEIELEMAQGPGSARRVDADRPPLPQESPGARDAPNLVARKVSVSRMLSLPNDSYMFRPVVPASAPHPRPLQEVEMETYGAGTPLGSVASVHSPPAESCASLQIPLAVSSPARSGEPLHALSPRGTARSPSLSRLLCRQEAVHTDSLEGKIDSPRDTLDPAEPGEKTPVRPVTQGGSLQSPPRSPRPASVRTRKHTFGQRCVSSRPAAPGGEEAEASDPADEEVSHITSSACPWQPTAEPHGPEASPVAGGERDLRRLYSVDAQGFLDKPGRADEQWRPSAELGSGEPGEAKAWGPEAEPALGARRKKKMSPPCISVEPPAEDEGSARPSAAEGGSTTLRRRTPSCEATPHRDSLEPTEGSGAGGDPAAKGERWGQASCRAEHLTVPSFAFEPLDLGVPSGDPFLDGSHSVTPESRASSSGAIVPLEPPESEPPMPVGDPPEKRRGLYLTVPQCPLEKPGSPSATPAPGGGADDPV
Procedure: as §8
2) Measurement of T-Type Calcium Channel Activity in HEK293 Cells by Whole-Cell Patch Clamp Electrophysiology
The culture medium was replaced with a fresh one every 3-4 days and the cells were subcultured every week. […] The T-type calcium channel current at single cell level was measured by whole-cell patch clamp electrophysiology using an EPC-9 amplifier (HEKA, Germany). For the T-type calcium channel activity measurement, an extracellular solution (140 mM NaCl, 2 mM CaCl2, 10 mM HEPES, pH 7.4) and an intracellular solution (130 mM KCl, 10 mM HEPES, 11 mM EGTA, 5 mM MgATP, pH 7.4) were used. […] Thereafter, the cell membrane potential was fixed to −100 mV and the inward current evoked by the T-type calcium channel activity was measured every 10 seconds at hypopolarization with −30 mV (50 ms duration). Each compound was dissolved in 100% dimethyl sulfoxide (DMSO) to make a 10 mM stock solution. […] More specifically, the cells were treated with each compound together with the extracellular solution for 30-60 seconds and the % inhibition was determined by calculating the inhibition of peak current induced by the compound.

[3] = system: human fibroblastoma (HT-1080) cells; test: Anticancer screening, SRB assay, HT-1080; type: cell-based; details: HT1080, 48 hours incubation, concentration not given
Procedure: (§1) Anticancer Effect Screening Test
(§2) All the cancer cells are human-derived tumor cells and were acquired from the Korean Cell Line Bank.
(§3) 2) Measurement of Anticancer Activity
(§4) After incubation in a CO2 incubator for 24 hours, the culture medium was removed and 100 μL of the test compound which was diluted 4-fold was added. After incubation for 48 hours, the cells were fixed by adding 100 μL of formalin solution. Then, the cells were washed 5 times with distilled water and dried at room temperature. After adding 100 μL of 0.4% SRB solution and keeping at room temperature for 30 minutes, the cells were washed 5 times with 1% acetic acid and dried at room temperature.
(§5) To evaluate the anticancer activity of the test compound against the cancer cells, the GI50 value was calculated according to Equation 1 or 2. Anticancer activity (%)=[…] Equation 1
(§6) In Equation 1, T0 represents the number of cells before adding the test compound and T2 represents the number of cells after adding the test compound and incubating for 48 hours. Anticancer activity (%)=[…] Equation 2
(§7) The inhibition of cancer cell growth by the test compound (% inhibition) was determined by data regression using the Lotus program from the values calculated according to Equation 1 and the IC50 value was calculated from the % inhibition.

[4] = system: human glioma (U87-MG) cells; test: Anticancer screening, SRB assay, U87-MG; type: cell-based; details: 48 hours incubation, concentration not given
Procedure: as §1, §2, §3, §4, §5, §6, §7

[5] = system: human prostate carcinoma (LNCaP) cells; test: Anticancer screening, SRB assay, LNCaP; type: cell-based; details: 48 hours incubation, concentration not given
Procedure: as §1, §2, §3, §4, §5, §6, §7

[6] = system: human esophageal carcinoma (KYSE410) cells; test: Anticancer screening, SRB assay, KYSE410; type: cell-based; details: KYSE410, 48 hours incubation, concentration not given
Procedure: as §1, §2, §3, §4, §5, §6, §7

[7] = system: human lung carcinoma (A-549) cells; test: Anticancer screening, SRB assay, A-549; type: cell-based; details: A 549, 48 hours incubation, concentration not given
Procedure: as §1, §2, §3, §4, §5, §6, §7

[8] = system: human breast cancer (MCF-7) cells; test: Anticancer screening, SRB assay, MCF-7; type: cell-based; details: MCF-7, 48 hours incubation, concentration not given
Procedure: as §1, §2, §3, §4, §5, §6, §7

[9] = system: human liver carcinoma (HepG2) cells; test: Anticancer screening, SRB assay, HepG2; type: cell-based; details: HepG2, 48 hours incubation, concentration not given
Procedure: as §1, §2, §3, §4, §5, §6, §7

[10] = spinal nerve ligation model; cited from earlier work

T1 sequence (O43497 whole entry): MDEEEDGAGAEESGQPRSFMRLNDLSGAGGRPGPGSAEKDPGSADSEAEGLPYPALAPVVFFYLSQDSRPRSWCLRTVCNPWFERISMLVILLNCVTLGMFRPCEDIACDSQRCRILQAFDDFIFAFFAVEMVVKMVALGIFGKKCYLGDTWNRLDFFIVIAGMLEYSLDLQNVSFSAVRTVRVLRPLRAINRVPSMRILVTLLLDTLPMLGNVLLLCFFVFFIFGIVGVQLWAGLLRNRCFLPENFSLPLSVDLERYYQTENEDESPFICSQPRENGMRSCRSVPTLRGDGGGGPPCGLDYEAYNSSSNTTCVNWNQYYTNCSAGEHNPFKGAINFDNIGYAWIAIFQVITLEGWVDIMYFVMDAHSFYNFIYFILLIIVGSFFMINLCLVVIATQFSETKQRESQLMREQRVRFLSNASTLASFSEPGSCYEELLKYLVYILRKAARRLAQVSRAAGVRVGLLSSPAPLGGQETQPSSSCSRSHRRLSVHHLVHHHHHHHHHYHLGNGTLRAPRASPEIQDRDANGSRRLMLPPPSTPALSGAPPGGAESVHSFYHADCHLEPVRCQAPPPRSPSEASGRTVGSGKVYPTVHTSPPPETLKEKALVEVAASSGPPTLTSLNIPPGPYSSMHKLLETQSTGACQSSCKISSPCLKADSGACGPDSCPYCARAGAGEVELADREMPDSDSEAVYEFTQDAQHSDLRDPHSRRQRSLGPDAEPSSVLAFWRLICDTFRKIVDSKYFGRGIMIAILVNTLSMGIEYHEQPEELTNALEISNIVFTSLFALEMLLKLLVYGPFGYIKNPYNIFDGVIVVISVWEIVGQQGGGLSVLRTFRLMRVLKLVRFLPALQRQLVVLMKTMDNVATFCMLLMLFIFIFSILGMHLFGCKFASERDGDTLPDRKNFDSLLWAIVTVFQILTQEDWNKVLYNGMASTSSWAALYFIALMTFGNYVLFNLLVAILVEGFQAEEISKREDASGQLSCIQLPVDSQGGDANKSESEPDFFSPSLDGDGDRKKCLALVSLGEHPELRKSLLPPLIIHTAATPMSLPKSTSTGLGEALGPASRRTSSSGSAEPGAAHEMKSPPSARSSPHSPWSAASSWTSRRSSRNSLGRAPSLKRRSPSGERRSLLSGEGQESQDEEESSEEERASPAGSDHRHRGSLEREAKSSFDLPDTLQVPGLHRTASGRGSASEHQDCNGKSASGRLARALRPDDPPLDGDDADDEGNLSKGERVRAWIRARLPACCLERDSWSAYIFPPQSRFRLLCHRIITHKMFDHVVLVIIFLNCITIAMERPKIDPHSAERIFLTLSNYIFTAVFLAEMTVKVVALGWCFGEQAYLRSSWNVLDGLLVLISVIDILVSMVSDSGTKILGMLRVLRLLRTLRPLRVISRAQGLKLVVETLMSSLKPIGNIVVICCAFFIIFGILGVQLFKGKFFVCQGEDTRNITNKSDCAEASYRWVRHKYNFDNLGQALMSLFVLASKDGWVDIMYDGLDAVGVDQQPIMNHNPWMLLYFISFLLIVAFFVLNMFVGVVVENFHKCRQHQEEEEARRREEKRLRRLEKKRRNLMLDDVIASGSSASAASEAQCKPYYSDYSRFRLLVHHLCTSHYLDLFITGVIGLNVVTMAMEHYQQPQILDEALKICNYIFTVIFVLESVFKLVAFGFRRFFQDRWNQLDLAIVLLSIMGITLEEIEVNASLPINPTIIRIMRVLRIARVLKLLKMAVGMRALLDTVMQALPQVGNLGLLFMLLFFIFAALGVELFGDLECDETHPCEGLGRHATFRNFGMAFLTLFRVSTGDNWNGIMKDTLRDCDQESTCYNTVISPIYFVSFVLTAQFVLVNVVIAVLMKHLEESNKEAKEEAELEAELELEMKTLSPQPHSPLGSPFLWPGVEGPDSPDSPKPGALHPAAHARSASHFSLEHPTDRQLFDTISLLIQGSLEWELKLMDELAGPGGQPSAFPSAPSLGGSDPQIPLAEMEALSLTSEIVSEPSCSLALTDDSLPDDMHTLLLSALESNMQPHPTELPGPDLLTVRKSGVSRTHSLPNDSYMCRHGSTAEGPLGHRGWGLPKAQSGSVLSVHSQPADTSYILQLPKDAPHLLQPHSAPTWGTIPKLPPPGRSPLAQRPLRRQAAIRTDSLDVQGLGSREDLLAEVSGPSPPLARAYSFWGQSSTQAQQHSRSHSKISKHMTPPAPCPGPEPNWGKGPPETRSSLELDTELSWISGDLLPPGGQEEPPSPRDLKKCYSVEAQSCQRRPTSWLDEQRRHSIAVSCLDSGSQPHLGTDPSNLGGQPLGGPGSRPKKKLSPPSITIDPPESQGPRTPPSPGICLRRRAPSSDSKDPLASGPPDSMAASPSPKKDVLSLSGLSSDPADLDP

Row | inhibition at 10 µM [1] [%] | inhibition at 10 µM [2] [%] | Compound | % inhibition for cancer cells HT1080 [3] [%] | % inhibition for cancer cells U87-MG [4] [%] | % inhibition for cancer cells LNCaP [5] [%] | % inhibition for cancer cells KYSE410 [6] [%] | % inhibition for cancer cells A 549 [7] [%] | % inhibition for cancer cells MCF-7 [8] [%] | % inhibition for cancer cells HepG2 [9] [%] | effect on mechanically and thermally induced pain [10]
1 | 81 | 89.9 | CC(C)Cc1cc(CNC(=O)C2C3CN(C(=O)Cc4ccccc4)CC32)nn1-c1ccccc1 (centres unmarked) [Compound 5, 5-Isobutyl-1-phenyl-3-[3-(2-phenylacetyl)-3-azabicyclo[3.1.0]hexane-6-carboxamido]methyl-1H-pyrazole] | 67.10 | 45.39 | 62.24 | 48.62 | 94.61 | 95.24 | 89.16 | –
2 | – | – | C#Cc1cccc(Nc2ncnc3cc(OCCOC)c(OCCOC)cc23)c1 [Tarceva, reference compound] | 83.07 | 55.96 | 47.12 | 36.30 | – | – | – | –
3 | 60.5 | 64.6 | CC(C)Cc1cc(CNC(=O)C2C3CN(CCc4ccc(C(F)(F)F)cc4)CC32)nn1-c1ccccc1 (centres unmarked) [Compound 3, 5-Isobutyl-1-phenyl-3-{3-[4-(trifluoromethyl)phenylethyl]-3-azabicyclo[3.1.0]hexane-6-carboxamido}methyl-1H-pyrazole] | 87.64 | 89.21 | 92.29 | 92.33 | 75.64 | 85.44 | 67.82 | –
4 | – | – | Cc1ccc(NC(=O)c2ccc(CN3CCN(C)CC3)cc2)cc1Nc1nccc(-c2cccnc2)n1 [Gleevec, reference compound] | 92.04 | 86.51 | 82.56 | 75.92 | 94.17 | 95.19 | 90.81 | –
5 | – | – | CC(C)Cc1cc(CNC(=O)C2C3CN(C(=O)c4ccccc4)CC32)nn1-c1ccccc1 (centres unmarked) [Compound 4, 3-(3-Benzoyl-3-azabicyclo[3.1.0]hexane-6-carboxamido)methyl-5-isobutyl-1-phenyl-1H-pyrazole] | 75.39 | 56.49 | 73.31 | 56.84 | 94.52 | 95.00 | 89.44 | –
6 | – | – | CC(C)Cc1cc(CNC(=O)C2C3CN(CCC(C)(C)C)CC32)nn1-c1ccccc1 (centres unmarked) [Compound 1, 3-[3-(3,3-Dimethylbutyl)-3-azabicyclo[3.1.0]hexane-6-carboxamido]methyl-5-isobutyl-1-phenyl-1H-pyrazole] | 62.86 | 48.10 | 34.74 | 62.50 | 94.52 | 94.86 | 87.91 | –
7 | – | – | CC(C)Cc1cc(C(=O)NCC2C3CN(CCC(C)(C)C)CC23)nn1-c1ccccc1 (centres unmarked) [Compound 7, 3-{2-[3-(3,3-Dimethylbutyl)-3-azabicyclo[3.1.0]hexane-6-yl]methyl}carbamoyl-5-isobutyl-1-phenyl-1H-pyrazole] | 88.79 | 89.43 | 49.98 | 86.46 | 93.14 | 94.67 | 98.18 | –
8 | – | – | CC(C)Cc1cc(CNC(=O)C2C3CN(Cc4ccccc4)CC32)nn1-c1ccccc1 (centres unmarked) [Compound 2, 3-(3-Benzyl-3-azabicyclo[3.1.0]hexane-6-carboxamido)methyl-5-isobutyl-1-phenyl-1H-pyrazole] | 87.79 | 86.45 | 84.90 | 88.75 | – | – | – | –
9 | – | – | COCC(=O)O[C@]1(CCN(C)CCCc2nc3ccccc3[nH]2)CCc2cc(F)ccc2[C@@H]1C(C)C [mibefradil] | – | – | – | – | – | – | – | inhibit mechanically and thermally induced pain in a dose-dependent manner
10 | – | – | CCC1(C)CC(=O)NC1=O (centres unmarked) [ethosuximide] | – | – | – | – | – | – | – | inhibit mechanically and thermally induced pain in a dose-dependent manner
